Patent publication US9238055B2, “Peptide bone forming peptide 4 for promoting osteogenesis or vascularization and use thereof” (Chonnam National University Hospital, priority 2011, dated 2016)
Where no end group is shown, it is not given here.

Test system: mesenchymal stem cells
Assay: MTT assay for cytotoxicity
Assay type: cell-based, mouse
Conditions: at concentrations effective for promoting osteogenic differentiation; FIG. 3
Method: At concentrations effective for calcium deposition, BFP 4 was analyzed for cytotoxicity. In this context, MTT ((3-(4,5-Dimethylthiazol-2-yl)-2,5-diphenyltetrazolium bromide, a yellow tetrazole) assay was performed using an MTT Cell Proliferation Assay Kit (Cayman Chemical) according to the instructions of the manufacturer.

With “FFKATEVHFRSIRST [BFP 4, Phe-Phe-Lys-Ala-Thr-Glu-Val-His-Phe-Arg-Ser-Ile-Arg-Ser-Thr]” the “Cytotoxicity (MTT)” value was “no cytotoxicity was detected”.
